Results as given in patent publication US12239643B2, “Therapeutic agent for inflammatory diseases, autoimmune diseases, fibrotic diseases, and cancer diseases” (MEIJI SEIKA PHARMA CO., LTD., priority 2018, dated 2025).
Read-outs that look alike come from different tables or passages of the source.

Tests used:
TGF-β = TGF-β inhibitory activity using THP1 cells differentiated into macrophages; type: cell-based; details: Homo sapiens, read-out: TFG-β Inhibitory Activity (Test Example 6)
Procedure: The TGF-β inhibitory activity was measured using THP1 cells as follows. First, THP1 cells were seeded on a 24-well culture plate at […], and culture was carried out overnight at 37° C. and 5% CO2 in RPMI-1640 medium (containing 10% fetal bovine serum, penicillin, and streptomycin) supplemented with 100 nM phorbol myristate acetate. After that, the cells were differentiated into macrophages by changing to RPMI-1640 medium without phorbol myristate acetate, followed by further culture at 37° C. under 5% CO2 overnight. Next, the THP1 culture plate was washed once with PBS(−) 1 mL/well, and then the test compound and lipopolysaccharide (final concentration 1 μg/mL) were added, followed by culture at 37° C. under 5% CO2 for about 7 hours. After culturing, the entire amount of the medium was collected, and the amount of TGF-β in the centrifuged supernatant was quantified by the sandwich ELISA method. The non-addition of lipopolysaccharide was used as a blank, and the control was obtained by adding only dimethyl sulfoxide instead of the test compound, and the inhibition rate of the test compound against the control was calculated by the following formula. Inhibition Rate (%)={1−(Value at Addition of Each Test Compound−Blank Value)/(Control Value−Blank Value)}×100
In addition, the TGF-β inhibitory activity (concentration for the inhibition rate of 50%) of the test compound was calculated from the inhibition curves based on the inhibition rate for various concentrations of the test compound.
The measurement results obtained by measuring the TFG-β inhibitory activity (50% inhibitory concentration) of the test compounds by the above method were evaluated in accordance with the following evaluated basis; A: less than 1 μM, and B: 1 μM or more.

[1] = tested on: oxazolone-induced auricle edema, BALB/c mice; assay: Hapten repeated application mouse chronic dermatitis model (oral, topical); type: in vivo; details: for Mouse Chronic Dermatitis Model (Test Example 8), Oral: edema suppression rate: 0.3 to 10 mg/kg twice a day for 10 days; for Mouse Chronic Dermatitis Model (Test Example 8), Topical: edema suppression rate: 20 μL of 0.3 to 3% solution once or twice a day for 10 days
Outline: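 Female BALB/c mice aged 7–8 weeks were sensitised abdominally with 3% oxazolone, then challenged on both ears with 1% oxazolone. From week 1, test compound was given for 10 days orally at 0.3–10 mg/kg twice daily in 0.5% MC, or topically at 0.3–3% once or twice daily. Ear-thickness change measured by dial gauge gave edema suppression versus vehicle control.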

[2] = Hepatic metabolic stability (rat liver microsome method); type: in vitro ADME; details: rat liver microsomes 0.5 mg/mL, test substance 1 μM, NADPH 1 mM, 37° C., 30 minutes
Outline: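 Rat liver microsomes (0.5 mg/mL final) with test compound (1 μM final) in 100 mM potassium phosphate pH 7.4, 37° C; reaction started with NADPH (1 mM final) after 5 min preincubation. Acetonitrile stop at 0 and 30 min, LC-MS quantitation; % remaining = 30 min/0 min ×100, graded A ≥75%, B 60–<75%, C 45–<60%, D <45%.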

[3] = THP-1, THP1 cells differentiated into macrophages, lipopolysaccharide 1 μg/mL, about 7 hours

SMILES | IC50 (TGF-β; [3]) | Mouse Chronic Dermatitis Model (Test Example 8), Oral: edema suppression rate [1] | Mouse Chronic Dermatitis Model (Test Example 8), Topical: edema suppression rate [1] | Residual ratio (% remaining for 30-minute reaction) [2] | IC50 (TGF-β; THP-1, 7 h)
FC(F)(F)Oc1ccc(-c2nccs2)c2oc(N3CC4CC(C3)N4)nc12 [Example 29, 2-(3,6-Diazabicyclo[3.1.1]heptan-3-yl)-7-(thiazol-2-yl)-4-(trifluoromethoxy)benzo[d]oxazole] | < 1 µM | A (A: 70% or more) | A (A: 100% or more) | B (B: 60% or more and less than 75%) | 
CC(O)C(F)(F)Oc1ccc(-c2nccs2)c2oc(N3CC4CC(C3)N4)nc12 (single isomer, unassigned) [Example 252, 1-((2-(3,6-Diazabicyclo[3.1.1]heptan-3-yl)-7-(thiazol-2-yl)benzo[d]oxazol-4-yl)oxy)-1,1-difluoropropan-2-ol] |  | A (A: 70% or more) | A (A: 100% or more) | A (A: a % remaining rate of 75% or more) | 
CCOc1cc([C@@H](CS(C)(=O)=O)N2C(=O)c3cccc(NC(C)=O)c3C2=O)ccc1OC [apremilast, reference compound] |  | B (B: 40% or more and less than 70%) |  |  | > 1 µM
CC(C)(O)C(F)(F)Oc1ccc(-c2nccs2)c2oc(N3CC4CC(C3)N4)nc12 [Example 248, 1-((2-(3,6-Diazabicyclo[3.1.1]heptan-3-yl)-7-(thiazol-2-yl)benzo[d]oxazol-4-yl)oxy)-1,1-difluoro-2-methylpropan-2-ol] | < 1 µM | A (A: 70% or more) | A (A: 100% or more) | A (A: a % remaining rate of 75% or more) | 
